Several values for one entry are separate records, joined by “and”; a condition that tells them apart may be missing. Equal entries are not always repeated. Where two headings read alike, the source gives them in different places.

The target of one data set is T1, IGF1R (Homo sapiens, UniProt P08069).
T1 construct: 6×His- or GST-tagged kinase domain fragments of the corresponding RTKs expressed in baculovirus system; host or cells: baculovirus system
In words: IGF1R kinase assay. It is filed as biochemical. The following applies: Table 1; read-out: IGF1R IC50. Put shortly:
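The AlphaScreen PT66 format of the NPM-ALK assay was applied with minor modifications to commercial recombinant His/GST-tagged kinase domains. Compound (0.078125–40 μM) was incubated 30 min at RT with 10 μM ATP and biotinylated poly-GT in Tris pH 7.5/MgCl2/MnCl2/DTT buffer, then beads 60 min. Read at 520–680 nm; IC50 and Ki derived.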

Another data set has as its target TRKA (Homo sapiens, UniProt P04629). The data set is described as follows: TRKA kinase assay. The format is biochemical. Also noted: 6×His- or GST-tagged kinase domain fragments of the corresponding RTKs expressed in baculovirus system; host or cells: baculovirus system. The following applies: Table 1; read-out: TRKA IC50.
The next data set deals with ALK (Homo sapiens, UniProt Q9UM73). The data set is described as follows: ALK kinase assay (Kinase-Glo / AlphaScreen, purified NPM-ALK). It is filed as biochemical. Also noted: fused to the complete intracytoplasmic portion of ALK containing the functional tyrosine kinase domain; 6xHis; made in house; host or cells: insect cells; the other entry of the earlier key: NPM1 (P06748, Nucleophosmin). A general note: Kinase-Glo measures the ATP left after a reaction by luminescence.

A further data set concerns the target T2, IRK (Homo sapiens, UniProt P06213).
T2 construct: 6×His- or GST-tagged kinase domain fragments of the corresponding RTKs expressed in baculovirus system; host or cells: baculovirus system
The data set is described as follows: IRK (insulin receptor kinase) assay. The format is biochemical. The following applies: Table 1; read-out: IRK IC50. Here is the method:
To determine inhibition of several tyrosine kinases, such as IGF1R, InsR, Alk, TrkA and Jak2, kinase assays are conducted using either Kinase-Glo (Promega) or AlphaScreen (PerkinElmer) kinase assay platforms. The Kinase-Glo Luminescent Kinase Assay is a homogeneous method for measuring kinase activity by determining the amount of ATP remaining after a kinase reaction. The luminescent signal is proportional to the amount of ATP and inversely proportional to the amount of kinase activity. Tyrosine kinase PT66 AlphaScreen Assay is a high-sensitivity homogeneous, anti-phosphotyrosine antibody-mediated luminescent proximity method measuring incorporation of phosphate in synthetic poly(Glu-Tyr) substrate. The kinase preparations used consist of purified recombinant, 6×His- or GST-tagged kinase domain fragments of the corresponding RTKs expressed in baculovirus system.
Compounds with a range of concentrations 40 μM, 20 μM, 10 μM, 5 μM, 2.5 μM, 1.25 μM, 0.625 μM, 0.3125 μM, 0.15625 μM and 0.078125 μM were incubated with NPM-ALK, which was produced in insect cells as a 6×HIS-tagged fusion protein and purified using nickel-charged resin chromatography, for 30 minutes at RT in the presence of 10 μM ATP and 7.0 ng biotinylated poly-GT. A 1:1 mixture of […] and donor beads was then added to the reaction and incubated for an additional 60 minutes at RT. The assay was conducted on a MultiPROBE liquid handling workstation (PerkinElmer) in a 384-well plate format with a total reaction volume of 40 μL per well. Working stocks of all compounds were dissolved in 100% DMSO and serial dilutions of the compounds were performed using kinase buffer (50 mM Tris-HCl (pH 7.5), 5 mM MgCl2, 5 mM MnCl2, 2 mM DTT (added freshly before use), 0.01% Tween-20) containing 5% DMSO. […] Data were collected as optical readings at 520-680 nm on a Fusion™ microplate analyzer (PerkinElmer), and IC50 and Ki values calculated using PRISM3.0 software (GraphPad Software, Inc., San Diego, Calif.). The same assay was also used with minor modifications to assess the IC50 and Ki values for selected compounds against five other tyrosine kinases (IRK, IGF1R, Flt3, Abl, Src), all of which were purchased from commercial vendors. PolyGT-Biotin was bought from CIS Biointernational Cat. #61GT0BLD; ATP—from Sigma Cat. # A7699; sodium orthovanadate—from Sigma Cat. #S-6508; phosphotyrosine (PT66) assay kit from PerkinElmer Cat. #6760602M; automated workstation tips (20 μL): PerkinElmer Cat. #6000657; and OptiPlate-384 (white)—from PerkinElmer Cat. #6007299.

Data set [1] can be described thus: Plasma Protein Binding (Human), equilibrium dialysis. The format is in vitro ADME. The settings on record: 1.0E−05 M; for % Protein Bound, Mean: equilibrium dialysis; for % Protein Bound, 1st/2nd: individual data. For orientation: In equilibrium dialysis free small molecules cross a membrane that holds back macromolecules.
Data set [2] in a line: Liver microsome stability, Mouse LM-P1 / MLM. It is filed as in vitro ADME. The following applies: mouse, liver microsomes; for microsomal CLint: read-out: Mouse LM-P1 CL. On the technique in general: Liver microsomes are a subcellular fraction often used to study metabolism.
Data set [3] can be described thus: Liver microsome stability, Human LM-P1 / HLM. The format is in vitro ADME. The following applies: human, liver microsomes; for microsomal CLint: read-out: Human LM-P1 CL. The text has this: Metabolic stability of compound (II) (labeled as CRL241 below) in vitro has been tested in a standard in vitro microsomal stability assay in human microsomes (Cerep Study 13170).

Data set [4] in a line: Liver microsome stability, Rat LM-P1. It is filed as in vitro ADME. The settings on record: liver microsomes; for microsomal CLint: read-out: Rat LM-P1 CL.
Where [5] appears, read: Table 8D, read-out: GTx-ALK IC50.

T2 sequence (P06213 1023-1298 limits assumed): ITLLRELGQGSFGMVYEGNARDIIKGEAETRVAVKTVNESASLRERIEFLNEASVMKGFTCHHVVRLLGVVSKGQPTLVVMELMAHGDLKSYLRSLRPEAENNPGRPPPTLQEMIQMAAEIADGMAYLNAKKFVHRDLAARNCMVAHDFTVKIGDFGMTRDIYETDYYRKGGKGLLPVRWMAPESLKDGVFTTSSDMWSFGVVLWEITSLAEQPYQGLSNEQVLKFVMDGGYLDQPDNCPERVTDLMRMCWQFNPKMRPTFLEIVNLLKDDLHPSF
Sequence of ALK (Q9UM73 with tags, fused parts or gaps): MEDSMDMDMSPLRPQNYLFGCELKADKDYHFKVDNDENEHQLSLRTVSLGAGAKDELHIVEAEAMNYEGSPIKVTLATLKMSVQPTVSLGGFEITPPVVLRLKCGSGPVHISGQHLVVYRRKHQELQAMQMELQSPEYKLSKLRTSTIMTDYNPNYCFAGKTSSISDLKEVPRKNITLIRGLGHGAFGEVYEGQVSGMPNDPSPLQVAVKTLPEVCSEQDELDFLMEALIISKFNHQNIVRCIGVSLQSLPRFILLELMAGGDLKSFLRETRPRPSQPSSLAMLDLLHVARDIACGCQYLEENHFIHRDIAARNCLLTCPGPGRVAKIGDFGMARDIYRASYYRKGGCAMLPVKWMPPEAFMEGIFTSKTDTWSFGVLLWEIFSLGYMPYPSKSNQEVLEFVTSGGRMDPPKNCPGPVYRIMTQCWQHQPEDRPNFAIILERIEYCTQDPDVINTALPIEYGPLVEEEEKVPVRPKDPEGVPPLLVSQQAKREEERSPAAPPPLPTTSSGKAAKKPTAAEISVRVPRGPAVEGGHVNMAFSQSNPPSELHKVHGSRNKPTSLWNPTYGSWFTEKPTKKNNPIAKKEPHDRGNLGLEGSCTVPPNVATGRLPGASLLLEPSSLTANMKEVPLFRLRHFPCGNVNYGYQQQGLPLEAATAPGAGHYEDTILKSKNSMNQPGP
Sequence of TRKA (P04629 510-781 limits assumed): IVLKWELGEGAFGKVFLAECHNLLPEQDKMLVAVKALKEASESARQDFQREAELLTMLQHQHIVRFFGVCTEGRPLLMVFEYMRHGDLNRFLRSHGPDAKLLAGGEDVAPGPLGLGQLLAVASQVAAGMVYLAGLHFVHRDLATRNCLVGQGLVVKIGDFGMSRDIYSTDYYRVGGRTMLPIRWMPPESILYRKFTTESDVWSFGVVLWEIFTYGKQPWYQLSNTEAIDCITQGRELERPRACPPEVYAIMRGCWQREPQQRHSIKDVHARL
T1 sequence (P08069 999-1274 limits assumed): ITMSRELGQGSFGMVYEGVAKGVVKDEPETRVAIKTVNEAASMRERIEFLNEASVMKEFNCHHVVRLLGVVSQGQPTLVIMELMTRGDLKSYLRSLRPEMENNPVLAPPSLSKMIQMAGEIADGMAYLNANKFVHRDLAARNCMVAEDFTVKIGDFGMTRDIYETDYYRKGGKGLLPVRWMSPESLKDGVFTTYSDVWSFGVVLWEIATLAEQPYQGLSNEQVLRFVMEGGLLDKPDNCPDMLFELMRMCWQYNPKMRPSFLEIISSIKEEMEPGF

In the case of `Cc1cccc(C)c1C[C@H](C)Nc1cc[nH]c(=O)c1-c1nc2cc3c(cc2[nH]1)C(=O)N(CCN1CCCC1)C3`, the IC50 (as a rule, the concentration needed to halve the response being measured) was above 1 µM at IGF1R; below 0.01 µM on TRKA; 0.01 to 0.1 µM on ALK (Table 1, read-out: ALK IC50); above 1 µM on IRK.
As for `Cc1c(F)cccc1C[C@H](C)Nc1cc[nH]c(=O)c1-c1nc2cc3c(cc2[nH]1)C(=O)N(CCN1CCCC1)C3`, the IC50 on IGF1R is 0.25 to 1 µM; at TRKA, below 0.01 µM; at ALK (Table 1, read-out: ALK IC50), 0.01 to 0.1 µM; at IRK, 0.1 to 0.25 µM.
Turning to `O=C1NC(=O)c2cc3[nH]c(-c4c(NC[C@@H](O)c5cccc(Cl)c5)cc[nH]c4=O)nc3cc21`, the IC50 on IGF1R is 0.25 to 1 µM; at TRKA it was 0.1 to 0.25 µM; on ALK (Table 1, read-out: ALK IC50) it was above 1 µM; on IRK it was above 1 µM.
As for `O=C1c2cc3nc(-c4c(NC[C@@H](O)c5cccc(Cl)c5)cc[nH]c4=O)[nH]c3cc2C(=O)N1CCN1CCCC1`, the IC50 on IGF1R was 0.01 to 0.1 µM; at TRKA it was 0.01 to 0.1 µM; at ALK (Table 1, read-out: ALK IC50), 0.01 to 0.1 µM; on IRK it was 0.1 to 0.25 µM.
With `CCCC(=O)Nc1ccc(OCC(O)CNC(C)C)c(C(C)=O)c1` (stereo not shown) [Acebutolol], in data set [1], the “% Protein Bound, Mean” value amounted to 19.2%; the “% Protein Bound, 1st/2nd” value was 21.4% and 16.9%.
As to `CC(=O)CC(c1ccccc1)c1c(O)c2ccccc2oc1=O` (stereo not shown) [Warfarin], in data set [1], the “% Protein Bound, Mean” value turned out to be 99.2% and the “% Protein Bound, 1st/2nd” value was found to be 99.2%.
On to `Cc1ccc(F)cc1C[C@H](C)Nc1cc[nH]c(=O)c1-c1nc2cc3c(cc2[nH]1)C(=O)N(CCN1CCCC1)C3` [drawing 303], for which the IC50 at IGF1R is 0.1 to 0.25 µM; at TRKA it was below 0.01 µM; at ALK (Table 1, read-out: ALK IC50), below 0.01 µM; at IRK, 0.1 to 0.25 µM.
Regarding `Cc1ccc(F)cc1C[C@H](C)Nc1cc[nH]c(=O)c1-c1nc2cc3c(cc2[nH]1)CN(CCN(C)C)C3=O` [drawing 316], the IC50 was 0.1 to 0.25 µM on IGF1R; below 0.01 µM on TRKA; below 0.01 µM on ALK (Table 1, read-out: ALK IC50); 0.1 to 0.25 µM on IRK.
As for `Cc1ccc(F)cc1C[C@H](C)Nc1cc[nH]c(=O)c1-c1nc2cc3c(cc2[nH]1)C(=O)N(CCN1CCCC1)C3` [drawing 368], the figures for the half-life in data set [2], in data set [3] and in data set [4] were 13.1 min, above 20 min and 8.71 min, respectively. The microsomal CLint is 52.9 µL/min/mg in data set [2], below 5.8 µL/min/mg in data set [3] and 79.6 µL/min/mg in data set [4]. Also, the IC50 at ALK (setting [5]) is 0.002 µM.
`C[C@@H](Cc1cc(F)cc(F)c1F)Nc1cc[nH]c(=O)c1-c1nc2cc3c(cc2[nH]1)CN(CCN1CCCC1)C3=O` [drawing 369]: the half-life (usually how long it takes for the measured level to halve) was 22.1 min in data set [2], above 120 min in data set [3] and 5 min in data set [4]. The results for the microsomal CLint in data set [2], in data set [3] and in data set [4] were 31.4 µL/min/mg, below 5.8 µL/min/mg and 138 µL/min/mg, respectively. Besides, the IC50 on ALK (setting [5]) was 0.005 µM.
For the compound `C[C@@H](Cc1c(F)c(F)cc(F)c1F)Nc1cc[nH]c(=O)c1-c1nc2cc3c(cc2[nH]1)CN(CCN1CCCC1)C3=O` [drawing 370], the values for the half-life in data set [2], in data set [3] and in data set [4] were 29 min, above 120 min and 4.36 min, respectively. The microsomal CLint is 23.9 µL/min/mg in data set [2], below 5.8 µL/min/mg in data set [3] and 159 µL/min/mg in data set [4]. In addition, on ALK (setting [5]), the IC50 turned out to be 0.003 µM.

The values above are taken from US9249147B2, “Tyrosine kinase inhibitors” (CHEMBRIDGE CORPORATION, priority 2008, dated 2016).
